Test results published in patent US20090088380A1, “GHRH ANALOGS AND THERAPEUTIC USES THEREOF” (priority 2007, published 2009).
Values joined by “and” are separate entries in the source; they are usually repeats but may differ in a detail not shown here. Equal values may be shown once. Non-standard residues stand in square brackets, D forms with d. Residues, ends and D or L forms follow the SMILES beside them.

Assays:
[1] = In vitro proteolysis assay in rat serum; assay type: in vitro ADME
Experimental: Proteolysis was stopped by adding 800 μl of ice-cold stop buffer (potassium-phosphate buffer, acidified to pH 0.8 with trifluoroacetic acid (TFA) and boiling 5 min (rat serum only). After centrifugation (12000 g, 5 min, 4° C.) (rat serum only), serum-peptide mixtures were passed through a conditioned Sep-Pak C-18 cartridge to extract native GHRH or a GHRH analog residual concentrations from serum proteins. The native GHRH or the analog was eluted in 2 ml of 50% acetonitrile-0.01% TFA/50% 0.01% aqueous TFA. 200 μl of extracted peptide, representing 1 μg of GHRH or analog at time 0, was quantified by analytical HPLC, using one μ-Bondapak C18 column (10 μm particle size, 0.39×15 cm) (rat serum) or two C18 columns in series (human serum and plasma) and a binary solvent system composed of NaClO4 0.01 M, pH 2.5 and acetonitrile. A linear gradient from 30 to 60% acetonitrile over 45 min (rat serum) or 30 to 50% (human serum and plasma) was used. Elution of intact peptide was monitored at 214 nm and residual concentration determined by assessment of peak surface areas.

[2] = target: T1, hGHRH(1-44)-NH2 binding sites in rat anterior pituitary (Rattus norvegicus, UniProt Q02644); assay: Relative binding affinity in rat anterior pituitary preparations, [125I-Tyr10]hGHRH(1-44)-NH2 radioligand; details: values compared to hGHRH(1-29)-NH2
T1 construct: from tissue; host or cells: anterior pituitary of 2-month old male Sprague Dawley rats
T1 sequence (Q02644 23-423 isoform Q02644-2 limits assumed): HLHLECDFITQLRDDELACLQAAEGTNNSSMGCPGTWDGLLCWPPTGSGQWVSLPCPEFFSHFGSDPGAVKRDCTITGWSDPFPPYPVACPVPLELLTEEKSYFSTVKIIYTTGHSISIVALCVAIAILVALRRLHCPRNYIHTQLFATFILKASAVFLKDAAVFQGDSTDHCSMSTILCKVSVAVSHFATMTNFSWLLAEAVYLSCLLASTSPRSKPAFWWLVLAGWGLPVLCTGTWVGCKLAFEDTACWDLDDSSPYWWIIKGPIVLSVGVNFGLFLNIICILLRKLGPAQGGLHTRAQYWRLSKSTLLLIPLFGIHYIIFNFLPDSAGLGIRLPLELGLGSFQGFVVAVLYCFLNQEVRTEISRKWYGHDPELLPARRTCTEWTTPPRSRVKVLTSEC
Excerpt: Initial selection of a candidate from the original 14 polysubstituted GHRH analogs described in the U.S. Pat. No. 5,854,216 was based upon in vitro data on receptor affinity in 2-month old male Sprague Dawley rat anterior pituitary preparations. The embodiments are based on the affinity of selected GHRH analogs for the human GHRH receptor (hGHRH-R) in baby hamster kidney (BHK) cells transfected with hGHRH-R, and on resistance to proteolysis in rat serum, human plasma or human serum. More precisely, the preferred drug candidates were selected, as compared to hGHRH(1-29)-NH2, for: i-their increased relative binding affinity to hGHRH(1-44)-NH2 binding sites in rat anterior pituitary in vitro as well as to hGHRH-R in BHK-expressing cells in vitro; and ii-their relative resistance to proteolysis in vitro.

[3] = test system: IGF-1, IGFBP-1 and IGFBP-3; assay: Phase II CKD: total IGF-1, IGFBP-1 and IGFBP-3; assay type: in vivo, human
Experimental: Total IGF-1 (ng/mL), insulin-like growth factor binding protein (IGFBP-1 and IGFBP-3, ng/mL) were measured at every visit from baseline to Day 28 as markers for tissue and cell growth and proliferation. Samples were analysed at the Department of Nephrology, Endocrinology and Metabolic Diseases, Silesian University School of Medicine, Katowice using a Medgenix Diagnostics kit.

[4] = test system: malnourished subjects with CKD; assay: Phase II CKD: DEXA scan; assay type: in vivo, human
Experimental: The DEXA scan was performed by an appropriately qualified person and in accordance with the agreed guidelines. Mean body composition values (fat free mass, fat mass and bone mineral content) were recorded for the total body and for defined regional areas (arms, legs, trunk), if possible.
Mean body composition values (total tissue, fat mass, lean tissue and bone mineral content) were recorded for the total body and defined regional areas (arms, legs, trunk) if possible. FFM was derived for total body and for regional areas.

[5] = test system: malnourished subjects with CKD; assay: Phase II CKD: biochemical markers of nutritional and metabolic state (plasma proteins, glucose control, lipids); assay type: in vivo, human
Experimental: Plasma proteins were measured as markers for renal disease and malnourishment. Blood samples were analysed locally. Albumin (g/L) were measured at screening, baseline and on Day 28. Blood samples for measurement of pre-albumin (g/L) were collected at baseline, Day 14 and Day 28. Transferrin (g/L) was measured at baseline, Day 7, Day 14 and Day 28.
HbA1c (%) was measured at screening and Day 28 as a marker for long-term glucose control. Fasting insulin (μunits/mL) and fasting glucose (mmol/L) were measured at baseline, Day 7, Day 14 and Day 28 as markers for short-term glucose control.
Fasting triglyceride (mmol/L) and fasting cholesterol (mmol/L) were measured at baseline, Day 7, Day 14 and Day 28 as markers for lipid metabolism.

[6] = test system: IGF-1, IGFBP-1 and IGFBP-3; assay: Phase II CKD: total IGF-1, IGFBP-1 and IGFBP-3; assay type: in vivo, human; details: day 42
[7] = ITT, Baseline, listed as GHRH(1-29)NH2 synthetic analog
[8] = ITT, Day 28, listed as GHRH(1-29)NH2 synthetic analog

CC[C@H](C)[C@H](NC(=O)[C@H](C)NC(=O)[C@H](CC(=O)O)NC(=O)[C@@H](C)NC(=O)[C@@H](N)Cc1ccc(O)cc1)C(=O)N[C@@H](Cc1ccccc1)C(=O)N[C@H](C(=O)N[C@@H](CC(N)=O)C(=O)N[C@@H](CO)C(=O)N[C@H](Cc1ccc(O)cc1)C(=O)N[C@@H](CCCNC(=N)N)C(=O)N[C@@H](CCCCN)C(=O)N[C@H](C(=O)N[C@@H](CC(C)C)C(=O)N[C@H](C)C(=O)N[C@@H](CCC(N)=O)C(=O)N[C@@H](CC(C)C)C(=O)N[C@@H](CO)C(=O)N[C@@H](C)C(=O)N[C@@H](CCCNC(=N)N)C(=O)N[C@@H](CCCCN)C(=O)N[C@@H](CCCCN)C(=O)N[C@@H](CC(C)C)C(=O)N[C@@H](CCC(N)=O)C(=O)N[C@@H](CC(=O)O)C(=O)N[C@H](C(=O)N[C@@H](CCSC)C(=O)N[C@@H](CO)C(=O)N[C@@H](CCCNC(=N)N)C(N)=O)[C@@H](C)CC)C(C)C)[C@@H](C)O [GHRH analog #5, [D-Ala^2, D-Tyr^10, D-Ala^15, Lys^22] hGHRH(1-29)-NH2] (H-Y[dA]DAIFTNS[dY]RKVL[dA]QLSARKKLQDIMSR-NH2)
Relative resistance to proteolysis in vitro ([1]; compared to hGHRH(1-29)-NH2): 3.13
Residual concentration (% of initial concentration) ([1]; incubation 0 min): 100 ± 0 % of initial concentration
Relative binding affinity in rat anterior pituitary [2]: 1.04 ± 0.40
Mean decrease in IGFBP-1 concentration ([3]; 4-week treatment): 26.7%
IGFBP-3: adjusted difference between treatments ([3]; ITT): 580.85 ng/mL
IGFBP-1: mean (SD) ([3]; ITT, Baseline): 74.98 (39.13) ng/mL
IGFBP-3: median ([3]; ITT, Baseline): 4039.6 (813.7) ng/mL
Total IGF-1: median (95% CI) ([3]; ITT, Baseline): 335.8 (—) ng/mL
Total IGF-1: median (95% CI) [3, 7]: 335.8 ng/mL
Total IGF-1: median (95% CI) ([3]; ITT, Day 7): 576.0 (494.10; 828.70) ng/mL
Total IGF-1: median (95% CI) ([3]; ITT, Day 14): 611.8 (490.40; 913.60) ng/mL
Total IGF-1: median (95% CI) ([3]; ITT, Day 21): 729.8 (497.10; 913.50) ng/mL
IGFBP-1: mean (SD) ([3]; ITT, Day 28): 54.94 (30.72) ng/mL
IGFBP-3: median ([3]; ITT, Day 28): 5130.8 (961.0) ng/mL
Total IGF-1: median (95% CI) ([3]; ITT, Day 28): 684.2 (564.10; 881.80) ng/mL
Total IGF-1: median (95% CI) [3, 8]: 684.2 ng/mL
IGFBP-1: adjusted difference between GHRH and placebo ([3]; ITT, listed as GHRH(1-29)NH2 synthetic analog): 28.40 ng/mL
Median total IGF-1: increase ([3]; baseline to day 28): 104%
Mean fat mass (%) as % of the mean in placebo group ([4]; Day 28): 83%
Mean fat mass (kg) as % of the mean in placebo group ([4]; Day 28): 84%
Arms - bone mineral content: mean (SD) ([4]; ITT, Baseline): 0.317 (0.109) kg
Arms - fat mass: mean (SD) ([4]; ITT, Baseline): 2.22 (1.65) kg
Legs - bone mineral content: mean (SD) ([4]; ITT, Baseline): 0.791 (0.273) kg
Legs - fat mass: mean (SD) ([4]; ITT, Baseline): 5.26 (2.86) kg
Total body - bone mineral content (%): mean (SD) ([4]; ITT, Baseline): 3.63 (0.68) %
Total body - bone mineral content (kg): mean (SD) ([4]; ITT, Baseline): 2.236 (0.656) kg
Total body - fat free mass (%): mean (SD) ([4]; ITT, Baseline): 72.11 (14.25) %
Total body - fat free mass (kg): mean (SD) ([4]; ITT, Baseline): 43.83 (10.90) kg
Total body - fat mass (%): mean (SD) ([4]; ITT, Baseline): 27.89 (14.25) %
Total body - fat mass (kg): mean (SD) ([4]; ITT, Baseline): 17.10 (9.48) kg
Trunk - bone mineral content: mean (SD) ([4]; ITT, Baseline): 0.699 (0.239) kg
Trunk - fat mass: mean (SD) ([4]; ITT, Baseline): 8.52 (4.73) kg
Trunk - bone mineral content: mean (SD) [4, 7]: 0.699 kg
Arms - bone mineral content: mean (SD) ([4]; ITT, Day 28): 0.300 (0.106) kg
Arms - fat mass: mean (SD) ([4]; ITT, Day 28): 2.01 (1.25) kg
Legs - bone mineral content: mean (SD) ([4]; ITT, Day 28): 0.784 (0.281) kg
Legs - fat mass: mean (SD) ([4]; ITT, Day 28): 5.31 (3.05) kg
Total body - bone mineral content (%): mean (SD) ([4]; ITT, Day 28): 3.58 (0.69) %
Total body - bone mineral content (kg): mean (SD) ([4]; ITT, Day 28): 2.225 (0.674) kg
Total body - fat free mass (%): mean (SD) ([4]; ITT, Day 28): 73.16 (14.31) %
Total body - fat free mass (kg): mean (SD) ([4]; ITT, Day 28): 44.85 (11.61) kg
Total body - fat mass (%): mean (SD) ([4]; ITT, Day 28): 26.84 (14.31) %
Total body - fat mass (kg): mean (SD) ([4]; ITT, Day 28): 16.51 (9.51) kg
Trunk - bone mineral content: mean (SD) ([4]; ITT, Day 28): 0.718 (0.253) kg
Trunk - fat mass: mean (SD) ([4]; ITT, Day 28): 8.17 (4.91) kg
Trunk - bone mineral content: mean (SD) [4, 8]: 0.718 kg
Total body - fat free mass (kg): ratio of means; higher than placebo ([4]; ITT, Day 28, vs placebo): 2.94 kg
Total body - fat mass (%): ratio of means ([4]; ITT, Day 28, vs placebo): 0.83
Total body - fat mass (kg): ratio of means ([4]; ITT, Day 28, vs placebo): 0.84
Total body - fat free mass (kg): ratio of means; higher than placebo ([4]; ITT, Day 28, vs placebo, listed as GHRH(1-29)NH2 synthetic analog): 2.9 kg
Decrease from baseline in median FM ([4]; day 28): 0.4 kg
FM lost on average in arms ([4]; day 28): 0.22 kg
FM lost on average in trunk ([4]; day 28): 0.30 kg
Increase from baseline in median FFM ([4]; day 28): 1.6 kg
Mean FFM gained, arms ([4]; day 28): 0.15 kg
Mean FFM gained, legs ([4]; day 28): 1.03 kg
Mean FFM gained, total body ([4]; day 28): 1.83 kg
Mean FFM gained, trunk ([4]; day 28): 0.59 kg
Mean total FM lost ([4]; day 28): 0.51 kg
Fasting cholesterol: mean difference (GHRH-Placebo) ([5]; ITT): −0.58
Albumin: median ([5]; ITT, Baseline): 41.0 g/L
Fasting glucose: median ([5]; ITT, Baseline): 5.1 mmol/L
Fasting insulin: median ([5]; ITT, Baseline): 8.4 μ units/mL
Fasting triglycerides: median ([5]; ITT, Baseline): 1.40 mmol/L
Pre-albumin: mean (SD) ([5]; ITT, Baseline): 0.216 (0.088) g/L
Transferrin: mean (SD) ([5]; ITT, Baseline): 2.202 (0.315) g/L
Albumin: median ([5]; ITT, Day 28): 40.4 g/L
Fasting glucose: median ([5]; ITT, Day 28): 5.4 mmol/L
Fasting insulin: median ([5]; ITT, Day 28): 12.1 μ units/mL
Fasting triglycerides: median ([5]; ITT, Day 28): 1.98 mmol/L
HbA1c: median ([5]; ITT, Day 28): 5.606%
Pre-albumin: mean (SD) ([5]; ITT, Day 28): 0.201 (0.103) g/L
Transferrin: mean (SD) ([5]; ITT, Day 28): 2.383 (0.370) g/L
Fasting cholesterol: median [5, 8]: 4.69 mmol/L
HbA1c: median ([5]; ITT, Screening): 5.516%
Fasting glucose: ratio of means ([5]; ITT, vs placebo): 1.030
Fasting insulin: ratio of means ([5]; ITT, vs placebo): 1.79 and 1.788
Fasting triglycerides: ratio of means ([5]; ITT, vs placebo): 1.199
Pre-albumin: comparison or ratio of means ([5]; ITT, vs placebo): −0.093
Transferrin: comparison or ratio of means ([5]; ITT, vs placebo): 0.06
Fasting insulin: median ([5]; day 7): 14.2 μunits/ml
Fasting insulin: median ([5]; day 14): 15.5 μunits/ml
Reduction of mean cholesterol in almost all patients (10/12) ([5]; in vivo): up to 10%
Median IGF-1 after treatment discontinuation [6]: 368.2 ng/mL
